In PMC10578352, “Identification of a Protein Arginine Methyltransferase 7 (PRMT7)/Protein Arginine Methyltransferase 9 (PRMT9) Inhibitor” (Journal of Medicinal Chemistry, 2023):

Assays:
Format in all cases: biochemical
[1] = biological target: T1, MLL1/KMT2A (5 component complex) (Homo sapiens, UniProt Q03164); experiment: HotSpot KMT activity assay, MLL1
T1 construct: MLL1 residues 3745–3969, C-terminus; His (N); purchased Reaction Biology Corporation
Source text: (§1) ; MW = 35.4 kDa; Genbank Accession # NM_018489), or the human recombinant EZH2-containing five-member polycomb repressive complex 2 (including EZH2 residues 2–746, AEBP2 2–517, EED 2–441, RbAp48 2–425, SUZ12 2–739; all full-length; with N-terminal Flag-tag on EED and N-terminal His-tag on all others; MW = 333.8 kDa; Genbank Accession # NM_001203247, NM_001114176, NM_003797, NM_005610, NM_015355), or the human recombinant G9a (residues 913–1193, C-terminus; with an N-terminal His-tag; MW = 34.6 kDa; Genbank Accession # NM_006709.3), or the human recombinant MLL1 complex (including MLL1 residues 3745–3969, C-terminus, WDR5 22–334, C-terminus, RbBP5 1–538, C-terminus, ASH2L 2–534, C-terminus, DPY-30 1–99, C-terminus; N-terminal His-tag on all subunits; MW = 212.0 kDa; Genbank Accession # NM_005933, NM_017588, NM_005057, NM_001105214, NM_0325742), or the human recombinant SET7/9 (residues 2–366, C-terminus; with a N-terminal GST-tag and a C-terminal His-tag; MW = 68.5 kDa; Genbank Accession # NM_030648), or the human recombinant SMYD3 (residues 2–428, C-terminus; C-terminal His-tag; MW = 50.1 kDa; Genbank Accession # NM_001167740), or the human recombinant SUV39H2 (residues 46–410, C-terminus; N-terminal fusion protein with a C-terminal His-tag; MW = 98.8 kDa; GenBank Accession No. NM_001193424), or the human recombinant DOT1L (residues 1–416; N-terminal GST-tag; MW = 80.0 kDa; Genbank Accession # NM_032482) was added to a solution of the proper substrate (oligo nucleosomes for ASH1L, MLL1 complex, and DOT1L, final concentration 0.05 mg/mL; core histone for EZH2 complex and SET7/9, final concentration 0.05 mg/mL; histone H3 for SUV39H2, final concentration 5 μM; histone H3 1–21 for G9a, final concentration 2.5 μM) in freshly prepared reaction buffer (50 mM Tris-HCl (pH 8.5), 5 mM MgCl2, 50 mM NaCl, 1 mM DTT, 1 mM PMSF, 1% DMSO) and gently mixed. […] After incubation for 60 min at 30 °C, the reaction mixture was delivered to filter paper for detection (as assessed by scintillation). […] Values obtained for each compound are mean ± SD determined for two separate experiments.

[2] = biological target: T2, SET7/9/KMT7 (Homo sapiens, UniProt Q8WTS6); experiment: HotSpot KMT activity assay, SET7/9; conditions: 10-dose IC50 mode; read-out: ref. cmpd. IC50, SET7/9
T2 construct: the human recombinant SET7/9 (residues 2–366, C-terminus); GST (N); His (C); purchased Reaction Biology Corporation
T2 sequence (Q8WTS6 2-366): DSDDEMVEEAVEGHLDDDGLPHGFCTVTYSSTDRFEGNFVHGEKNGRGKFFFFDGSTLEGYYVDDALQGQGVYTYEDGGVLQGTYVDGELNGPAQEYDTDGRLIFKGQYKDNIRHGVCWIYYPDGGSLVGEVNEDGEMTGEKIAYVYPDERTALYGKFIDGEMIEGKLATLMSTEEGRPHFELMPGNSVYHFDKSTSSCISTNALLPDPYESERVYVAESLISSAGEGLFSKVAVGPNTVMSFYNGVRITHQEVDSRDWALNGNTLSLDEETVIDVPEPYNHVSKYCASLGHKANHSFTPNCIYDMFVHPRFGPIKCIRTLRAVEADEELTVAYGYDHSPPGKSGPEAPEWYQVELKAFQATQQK
Source text: as §1

[3] = biological target: T3, SMYD3/KMT3E (Homo sapiens, UniProt Q9H7B4); experiment: HotSpot KMT activity assay, SMYD3
T3 construct: the human recombinant SMYD3 (residues 2–428, C-terminus); C-terminal His-tag; His (C); purchased Reaction Biology Corporation
T3 sequence (Q9H7B4 2-428): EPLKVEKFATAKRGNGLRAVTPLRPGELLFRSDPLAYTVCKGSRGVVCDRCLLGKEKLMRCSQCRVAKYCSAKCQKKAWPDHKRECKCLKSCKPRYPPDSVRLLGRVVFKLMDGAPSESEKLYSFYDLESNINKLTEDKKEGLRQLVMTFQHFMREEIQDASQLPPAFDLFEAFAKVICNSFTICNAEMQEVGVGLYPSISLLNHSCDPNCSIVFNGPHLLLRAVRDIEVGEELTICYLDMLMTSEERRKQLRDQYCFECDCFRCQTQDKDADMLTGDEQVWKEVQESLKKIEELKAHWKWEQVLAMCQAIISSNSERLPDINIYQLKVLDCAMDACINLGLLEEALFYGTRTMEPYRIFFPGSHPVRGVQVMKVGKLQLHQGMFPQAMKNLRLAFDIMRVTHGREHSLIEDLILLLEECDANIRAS
Source text: as §1

[4] = biological target: T4, SUV39H2/KMT1B (Homo sapiens, UniProt Q9H5I1); experiment: HotSpot KMT activity assay, SUV39H2; conditions: 10-dose IC50 mode; read-out: ref. cmpd. IC50, SUV39H2
T4 construct: the human recombinant SUV39H2 (residues 46–410, C-terminus); His (C); purchased Reaction Biology Corporation
Source text: as §1

T4 sequence (Q9H5I1 46-410): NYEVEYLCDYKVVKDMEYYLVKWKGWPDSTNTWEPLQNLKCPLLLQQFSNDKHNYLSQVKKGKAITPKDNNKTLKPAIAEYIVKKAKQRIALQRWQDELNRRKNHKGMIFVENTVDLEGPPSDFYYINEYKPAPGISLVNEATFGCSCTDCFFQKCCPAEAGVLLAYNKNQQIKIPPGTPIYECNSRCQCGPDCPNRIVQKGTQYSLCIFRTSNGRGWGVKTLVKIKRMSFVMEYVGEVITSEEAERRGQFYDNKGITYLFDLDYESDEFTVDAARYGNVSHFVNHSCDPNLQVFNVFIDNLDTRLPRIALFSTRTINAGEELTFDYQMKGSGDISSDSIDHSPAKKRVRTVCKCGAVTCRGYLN

Nc1ncnc2c1ncn2[C@@H]1O[C@H](CSCC[C@H](N)C(=O)O)[C@@H](O)[C@H]1O [SAH, S-5′-adenosyl-L-homocysteine, reference compound]
IC50 [1]: 0.3 µM
IC50 [2]: 70.4 µM
IC50 [3]: 15.9 µM
IC50 [4]: 37.3 µM
